The values that follow come from patent US6414000B1, “Substituted diphenyl oxazolin derivatives with insecticidal effect” (Bayer Aktiengesellschaft, priority 1997, dated 2002).

Marks after values point to notes of the source that are not given here.

Data set [1] relates to caterpillars of the owlet moth (Spodoptera frugiperda). In words: Spodoptera frugiperda Test. It counts as in vivo. The settings on record: active compound concentration 0.0001%, after 7 days, dipped cabbage leaves. On the procedure: Spodoptera frugiperda Test
(§1) Solvent: 7 parts by weight of dimethylformamide
(§2) Emulsifier: 1 part by weight of alkylaryl polyglycol ether
(§3) To produce a suitable preparation of active compound, 1 part by weight of active compound is mixed with the stated amount of solvent and the stated amount of emulsifier, and the concentrate is diluted with water to the desired concentration.
Cabbage leaves (Brassica oleracea) are treated by being dipped into the active compound preparation of the desired concentration and populated with caterpillars of the owlet moth (Spodoptera frugiperda) while the leaves are still moist.
(§4) After the desired period of time, the activity in % is determined. 100% means that all caterpillars have been killed; 0% means that none of the caterpillars have been killed.

Data set [2] deals with caterpillars of the cotton bollworm (Heliothis armigera). Kind of data set: Heliothis armigera Test. It counts as in vivo. Particulars: active compound concentration 0.00016%, after 6 days, dipped soy shoots. The method, then:
as §1, §2, §3
Soy shoots (Glycine max) are treated by being dipped into the active compound preparation of the desired concentration and are populated with caterpillars of the cotton bollworm (Heliothis armigera), while the leaves are still moist.
After the desired period of time, the activity in % is determined. 100% means that all the caterpillars have been killed; 0% means that none of the caterpillars have been killed.

A short description of data set [3]: logP, n-octanol/water partition coefficient by reversed phase HPLC. It counts as physicochemical. The settings on record: reversed phase HPLC using H2O/CH3CN; for logP (A isomer): A isomer (possible geometric isomer); for logP (B isomer): B isomer (possible geometric isomer).
The test system of data set [4] is caterpillars of the diamond back moth (Plutella xylostella). Kind of data set: Plutella Test. In kind it is in vivo. The settings on record: active compound concentration 0.000032%, after 7 days, dipped cabbage leaves. On the procedure:
as §1, §2, §3
Cabbage leaves (Brassica oleracea) are treated by being dipped into the active compound preparation of the desired concentration and are infested with caterpillars of the diamond back moth (Plutella xylostella), while the leaves are still moist.
as §4

Data set [5] concerns larvae of the mustard beetle (Phaedon cochleariae). Kind of data set: Phaedon Larvae Test. It counts as in vivo. The settings on record: after 7 days, dipped cabbage leaves. The method, then:
as §1, §2, §3
After the desired period of time, the kill in % is determined. 100% means that all the beetle larvae have been killed; 0% means that none of the beetle larvae have been killed.

For data set [6], the system named is greenhouse red spider mite (Tetranychus urticae). Kind of data set: Tetranychus Test (OP resistant/spray treatment). It counts as in vivo. Particulars: active compound concentration 0.000032%, after 14 days, sprayed bean plants. The method, then:
Tetranychus Test (OP resistant/spray treatment)
Solvent: 3 parts by weight of dimethylformamide
as §2, §3
Bean plants (Phaseolus vulgaris) which are heavily infested by all stages of the greenhouse red spider mite (Tetranychus urticae) are sprayed with an active compound preparation of the desired concentration.
After the desired period of time, the activity in % is determined. 100% means that all the spider mites have been killed; 0% means that none of the spider mites have been killed.

Data set [7] deals with caterpillars of the owlet moth (Spodoptera exigua). Kind of data set: Spodoptera exigua Test. In kind it is in vivo. Particulars: active compound concentration 0.000032%, after 6 days, dipped cabbage leaves. The method, then:
as §1, §2, §3
Cabbage leaves (Brassica oleracea) are treated by being dipped into the active compound preparation of the desired concentration and populated with caterpillars of the owlet moth (Spodoptera exigua), while the leaves are still moist.
as §4

Another data set has as its system Lucilia cuprina larvae. In words: Blowfly Larvae Test/development-inhibitory Action. It counts as in vivo. The settings on record: active compound concentration 100 ppm. The method, then: Blowfly Larvae Test/development-inhibitory Action
Test animals: Lucilia cuprina larvae
Solvent: Dimethyl sulphoxide
20 m of active compound are dissolved in 1 ml of dimethyl sulphoxide, and lower concentrations are prepared by dilution with distilled H2O .
About 20 Lucilia cuprina larvae are placed in a test tube containing about 1 cm^3 of horsemeat and 0.5 ml of the active compound preparation to be tested. The activity of the active compound preparation is determined after 24 hours and 48 hours. The test tubes are transferred into beakers whose bottom is covered with sand. After a further 2 days, the test tubes are removed and the pupae are counted.
The activity of the active compound preparation is judged by the number of flies which have hatched after 1.5 times the development period of an untreated control. 100% means that no flies have hatched; 0% means that all flies have hatched normally.

The mark [8] stands for this setting: active compound concentration 0.01%.

Regarding `CCC(C)ON=C(C)COc1ccc(-c2ccc(C3COC(c4c(F)cccc4Cl)=N3)cc2)cc1` (mixture of isomers) [Example 3], the kill in data set [1], in data set [2], in data set [4] and in data set [5] (setting [8]) was 100% each time. Besides, the “logP (A isomer)” value in data set [3] is on record as 5.90 (A isomer)*. Further, the “logP (B isomer)” value in data set [3] is 5.81 (B isomer)*.

With `CON=CCOc1ccc(-c2ccc(C3COC(c4c(F)cccc4F)=N3)cc2)cc1` (mixture of isomers) [Example 8], in data set [3], the “logP (A isomer)” value is recorded as 3.97 (A isomer)* and the “logP (B isomer)” value was 4.14 (B isomer)*.

Consider `CCON=CCOc1ccc(-c2ccc(C3COC(c4c(F)cccc4F)=N3)cc2)cc1` (mixture of isomers) [Example 16], for which, in data set [3], the “logP (A isomer)” value is 4.35 (A isomer)* and the “logP (B isomer)” value was 4.53 (B isomer)*.

Regarding `CCON=C(COc1ccc(-c2ccc(C3COC(c4c(F)cccc4F)=N3)cc2)cc1)C(C)(C)C=C(Cl)Cl` (mixture of isomers) [Example 42], in data set [3], the “logP (A isomer)” value stood at 6.48 and the “logP (B isomer)” value worked out at 6.37.

`CCCCON=C(C)C(C)Oc1ccc(-c2ccc(C3COC(c4c(F)cccc4Cl)=N3)cc2)cc1` (mixture of isomers) [Example 49]: in data set [3], the “logP (A isomer)” value came to 6.23 and the “logP (B isomer)” value came to 6.09.

`CC(=NOCC(C)C)C(C)Oc1ccc(-c2ccc(C3COC(c4c(F)cccc4F)=N3)cc2)cc1` (mixture of isomers) [Example 51]: in data set [3], the “logP (A isomer)” value stood at 5.93 and the “logP (B isomer)” value stood at 5.79.

On to `CCCCON=C(C)C(C)Oc1ccc(-c2ccc(C3COC(c4c(F)cccc4F)=N3)cc2)cc1` (mixture of isomers) [Example 52], for which, in data set [3], the “logP (A isomer)” value was 5.94 and the “logP (B isomer)” value worked out at 5.80.

With `CC(COc1ccc(-c2ccc(C3COC(c4c(F)cccc4Cl)=N3)cc2)cc1)=NOCC(C)C` (mixture of isomers) [Example 54], in data set [3], the “logP (A isomer)” value came out at 5.85 and the “logP (B isomer)” value was 5.76.

As for `CCCCON=C(C)COc1ccc(-c2ccc(C3COC(c4c(F)cccc4F)=N3)cc2)cc1` (mixture of isomers) [Example 55], in data set [3], the “logP (A isomer)” value came to 5.58 and the “logP (B isomer)” value is on record as 5.51.

For `CCC(C)ON=C(C)COc1ccc(-c2ccc(C3COC(c4c(F)cccc4F)=N3)cc2)cc1` (mixture of isomers) [Example 56], in data set [3], the “logP (A isomer)” value is 5.61 and the “logP (B isomer)” value was 5.54.

Regarding `CCCCON=C(C)C(C)Oc1ccc(-c2ccc(C3COC(c4ccccc4Cl)=N3)cc2)cc1Cl` (mixture of isomers) [Example 61], in data set [3], the “logP (A isomer)” value was found to be 6.84 and the “logP (B isomer)” value came out at 6.67.

For the compound `CCCCON=C(C)C(C)Oc1ccc(-c2ccc(C3COC(c4c(F)cccc4F)=N3)cc2)cc1Cl` (mixture of isomers) [Example 63], in data set [3], the “logP (A isomer)” value turned out to be 6.37 and the “logP (B isomer)” value is recorded as 6.22.

As to `CON=C(C)C(C)Oc1ccc(-c2ccc(C3COC(c4ccccc4Br)=N3)cc2)cc1` (mixture of isomers) [Example 92], in data set [3], the “logP (A isomer)” value is recorded as 5.08 and the “logP (B isomer)” value was found to be 5.18.

As to `Fc1cccc(F)c1C1=NC(c2ccc(-c3ccc(OCc4ccc(C(F)(F)F)cc4)cc3)cc2)CO1` (centres unmarked) [Example 1, 2-(2,6-difluorophenyl)-4-[4′-(4″-trifluoromethylbenzyl-oxy)-biphenyl-4-yl]-1,3-oxazoline], the kill in data set [1] is 100%; in data set [2] it was 100%; in data set [6] it was 98%; in data set [4], 85%; in data set [7] it was 80%; in data set [5] (setting [8]) it was 100%.

For orientation: logP means a log measure of how a compound divides between an organic and an aqueous phase. A high value points to higher lipophilicity. Take `CC(=NOC(C)C)C(C)(C)Oc1ccc(-c2ccc(C3COC(c4c(F)cccc4Cl)=N3)cc2)cc1` (centres unmarked) [Example 4]: the kill in data set [1] and in data set [5] (active compound concentration 0.00001%) was 100% in each case. The same compound showed a logP in data set [3] of 6.30.

For the compound `CC(C)Oc1ccc(-c2ccc(C3COC(c4ccccc4Br)=N3)cc2)cc1` (centres unmarked) [Example 5], the “activity (development-inhibitory action, flies not hatched)” value with Lucilia cuprina larvae was found to be 100%.

In turn, `ClC1(Cl)CC1COc1ccc(-c2ccc(C3COC(c4ccccc4I)=N3)cc2)cc1` (centres unmarked) [Example 22] came in with a logP in data set [3] of 5.43.

`C#CC(C)Oc1ccc(-c2ccc(C3COC(c4c(F)cccc4F)=N3)cc2)cc1` (centres unmarked) [Example 36] displayed a lipophilicity (logP) in data set [3] of 4.15.

`C#CC(C)Oc1ccc(-c2ccc(C3COC(c4ccccc4Cl)=N3)cc2)cc1` (centres unmarked) [Example 37] had a log partition coefficient (logP) in data set [3] of 4.49.

In turn, `CCON=CC(C)(C)Oc1ccc(-c2ccc(C3COC(c4c(F)cccc4F)=N3)cc2)cc1` (centres unmarked) [Example 53] had a log partition coefficient (logP) in data set [3] of 5.00.

In data set [3], `CON=CC(C)(C)Oc1ccc(-c2ccc(C3COC(c4c(F)cccc4F)=N3)cc2)cc1` (centres unmarked) [Example 57] displayed a lipophilicity (logP) of 4.62.

For `CC(=O)C(C)Oc1ccc(-c2ccc(C3COC(c4ccccc4Br)=N3)cc2)cc1` (centres unmarked) [Example 68], the logP in data set [3] was found to be 4.13.

With `CC(O)C(C)Oc1ccc(-c2ccc(C3COC(c4ccccc4Br)=N3)cc2)cc1` (centres unmarked) [Example 91], the logP in data set [3] is 3.74.

With `CC(=O)C(C)Oc1ccc(-c2ccc(C3COC(c4ccccc4F)=N3)cc2)cc1` (centres unmarked) [Example 100], the logP in data set [3] stood at 3.79.

Compound `CC(C)(C=O)Oc1ccc(-c2ccc(C3COC(c4c(F)cccc4F)=N3)cc2)cc1` (centres unmarked) [Example 102] came in with a log partition coefficient (logP) in data set [3] of 4.08.

`CC(C)Oc1ccc(-c2ccc(C3COC(c4ccccc4F)=N3)cc2)cc1` (centres unmarked) [Example 107]: the logP in data set [3] is 4.65.

Compound `CC(C)COc1ccc(-c2ccc(C3COC(c4ccccc4F)=N3)cc2)cc1` (centres unmarked) [Example 108] came in with a logP in data set [3] of 5.34.

For `CON=CCOc1ccc(-c2ccc(C3COC(c4c(F)cccc4Cl)=N3)cc2)cc1` (centres unmarked) [Example 112], the logP in data set [3] came out at 4.27.

Turning to `CCON=CCOc1ccc(-c2ccc(C3COC(c4c(F)cccc4Cl)=N3)cc2)cc1` (centres unmarked) [Example 113], in data set [3], the logP came to 4.65.

In data set [3], `CON=CCOc1ccc(-c2ccc(C3COC(c4c(F)cccc4F)=N3)cc2)cc1Cl` (centres unmarked) [Example 114] showed a logP of 4.33.

Take `CCON=CCOc1ccc(-c2ccc(C3COC(c4c(F)cccc4F)=N3)cc2)cc1Cl` (centres unmarked) [Example 115]: the logP in data set [3] amounted to 4.71.

`CON=CCOc1ccc(-c2ccc(C3COC(c4ccccc4Cl)=N3)cc2)cc1Cl` (centres unmarked) [Example 116]: in data set [3], the logP turned out to be 4.72.

The compound `CCON=CCOc1ccc(-c2ccc(C3COC(c4ccccc4Cl)=N3)cc2)cc1Cl` (centres unmarked) [Example 117] returned a logP in data set [3] of 5.08.

Consider `Cc1cc(-c2ccc(C3COC(c4c(F)cccc4F)=N3)cc2)ccc1OCC(F)(F)F` (centres unmarked) [Example 119], for which the logP in data set [3] is 4.80.

`Cc1cc(-c2ccc(C3COC(c4c(F)cccc4OCC(F)(F)F)=N3)cc2)ccc1OCC(F)(F)F` (centres unmarked) [Example 120]: the logP in data set [3] turned out to be 4.91.
